IC50 data for 25 compounds are collected here from patent US20080004253A1, “Thiazolopyrimidine modulators of TRPV1” (priority 2006, published 2008).

The target in one assay is T1, rat TRPV1 (Rattus norvegicus, UniProt O35433).
T1 construct: expressed in transfected cells; host or cells: HEK293 (rTRPV1/HEK293), geneticin selection
Put plainly: Functional assay: block of capsaicin-induced Ca2+ influx, rat assay (rTRPV1/HEK293, FLIPR). The format is cell-based. The note with it: rTRPV1/HEK293 cells, capsaicin challenge, Fluo-3 fluorescence; mean; > value = solubility limit in assay medium. The procedure:
(§1) Functional assay: block of capsaicin-induced Ca^2+ influx
(§2) HEK293 cells were transfected with human TRPV1 cloned in pcDNA3.1zeo(+) using the Effectene non-liposomal lipid based transfection kit (Qiagen) (hTRPV1/HEK293). hTRPV1/HEK293 cells were routinely grown as monolayers under selection in zeocin (200 μg/mL; Invitrogen) in Dulbecco's Modified Eagle Medium (DMEM, Gibco BRL) supplemented with 10% fetal bovine serum, and penicillin/streptomycin (50 units/mL) in 5% CO2 at 37° C. Cells were passaged frequently, every 3-5 days, to avoid overgrowth, depletion of essential medium components, or acidic medium exposure. Cells were passaged using a brief wash in 0.05% trypsin with 1 mM EDTA, followed by dissociation in divalent-free phosphate-buffered saline (Hyclone #SH30028.02). […] The assay buffer was composed of 130 mM NaCl, 2 mM KCl, 2 mM MgCl2, 10 mM HEPES, 5 mM glucose, and either 2 mM or 20 μM CaCl2. On the day of the experiment, the culture medium was replaced with 2 mM calcium assay buffer using an automated plate washer (ELx405; Biotek, VT). […] After loading the cells, the dye solution was replaced with 50 μL/well of 20 μM calcium assay buffer using the ELx405 plate washer. Test compounds (50 μL/well) were added to the plate and incubated for 30 min. […] The IC50 values were determined. […] The contents of the wells were mixed 3 times (40 μL mix volume) immediately after the additions were made. Concentration-dependence of block was determined by exposing each well of cells in duplicate rows of a 96-well plate to a serial dilution of test compound. The concentration series usually started at 10 μM with a three-fold serial decrement in concentration. The magnitude of the capsaicin response was determined by measuring the change in fluo3 fluorescence before and 100 seconds after the addition of the agonist. Data were analyzed using a non-linear regression program (Origin; OriginLab, MA).
This assay was performed similarly to the human assay described above, but using HEK293 cells transfected with rat TRPV1 (rTRPV1/HEK293).
(§3) IC50 values shown are the average (mean) of the results obtained. […] Compounds were tested in either the free base or trifluoroacetic acid salt form.

The next assay concerns the target T2, human TRPV1 (Homo sapiens, UniProt Q8NER1).
T2 construct: expressed in transfected cells; host or cells: HEK293 (hTRPV1/HEK293), zeocin selection
Put plainly: Functional assay: block of capsaicin-induced Ca2+ influx, human assay (hTRPV1/HEK293, FLIPR). The format is cell-based. The note with it: hTRPV1/HEK293 cells, 150 nM capsaicin challenge, Fluo-3 fluorescence; mean; > value = solubility limit in assay medium. The protocol:
as §1, §2, §3

pIC50: −log10 of the molar value.

T2 sequence (Q8NER1 whole entry): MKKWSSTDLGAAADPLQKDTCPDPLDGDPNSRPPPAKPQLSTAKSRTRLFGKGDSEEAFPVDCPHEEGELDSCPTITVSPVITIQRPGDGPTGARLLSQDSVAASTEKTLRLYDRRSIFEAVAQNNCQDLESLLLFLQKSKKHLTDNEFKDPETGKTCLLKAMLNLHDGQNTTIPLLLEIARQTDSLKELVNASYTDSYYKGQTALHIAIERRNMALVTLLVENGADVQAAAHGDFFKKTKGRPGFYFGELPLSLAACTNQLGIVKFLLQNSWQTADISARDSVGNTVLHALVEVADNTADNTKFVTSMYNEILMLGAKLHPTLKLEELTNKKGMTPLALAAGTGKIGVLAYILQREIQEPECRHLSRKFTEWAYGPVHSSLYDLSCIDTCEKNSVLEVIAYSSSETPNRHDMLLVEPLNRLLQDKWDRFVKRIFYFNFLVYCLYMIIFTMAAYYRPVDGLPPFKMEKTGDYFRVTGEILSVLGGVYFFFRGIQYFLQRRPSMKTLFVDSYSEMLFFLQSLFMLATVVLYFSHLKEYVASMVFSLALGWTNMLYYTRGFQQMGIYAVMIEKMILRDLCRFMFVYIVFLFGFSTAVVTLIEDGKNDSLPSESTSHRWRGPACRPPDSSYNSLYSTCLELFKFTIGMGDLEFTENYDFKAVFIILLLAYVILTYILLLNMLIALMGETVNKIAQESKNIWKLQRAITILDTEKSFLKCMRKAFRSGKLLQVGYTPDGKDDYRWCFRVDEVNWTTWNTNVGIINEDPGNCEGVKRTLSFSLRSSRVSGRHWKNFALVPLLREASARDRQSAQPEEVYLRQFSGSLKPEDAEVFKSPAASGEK
T1 sequence (O35433 whole entry): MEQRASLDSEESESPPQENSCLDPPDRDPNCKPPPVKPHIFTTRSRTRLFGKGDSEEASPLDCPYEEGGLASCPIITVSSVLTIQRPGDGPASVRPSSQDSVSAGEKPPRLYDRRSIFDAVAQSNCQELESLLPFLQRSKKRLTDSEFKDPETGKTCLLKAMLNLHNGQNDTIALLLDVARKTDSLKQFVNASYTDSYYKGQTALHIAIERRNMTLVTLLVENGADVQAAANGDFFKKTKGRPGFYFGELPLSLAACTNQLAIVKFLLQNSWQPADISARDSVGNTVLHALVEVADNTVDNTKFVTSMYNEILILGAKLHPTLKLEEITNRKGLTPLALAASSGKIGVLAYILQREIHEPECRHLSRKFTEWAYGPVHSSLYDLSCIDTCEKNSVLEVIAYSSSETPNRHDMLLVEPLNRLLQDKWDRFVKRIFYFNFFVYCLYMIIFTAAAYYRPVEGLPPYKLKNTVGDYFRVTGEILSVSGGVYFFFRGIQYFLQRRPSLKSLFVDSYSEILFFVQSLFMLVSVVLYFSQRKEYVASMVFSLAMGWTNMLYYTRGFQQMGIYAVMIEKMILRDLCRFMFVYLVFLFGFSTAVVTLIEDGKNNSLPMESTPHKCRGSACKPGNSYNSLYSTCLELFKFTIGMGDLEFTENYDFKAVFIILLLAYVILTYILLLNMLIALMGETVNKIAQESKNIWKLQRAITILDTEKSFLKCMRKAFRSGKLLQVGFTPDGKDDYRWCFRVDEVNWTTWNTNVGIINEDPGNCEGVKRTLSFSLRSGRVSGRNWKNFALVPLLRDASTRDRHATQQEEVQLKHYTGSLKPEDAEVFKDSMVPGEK

What is called pIC50 is −log10 of the IC50, conventionally taken in molar units. `Cc1noc(C)c1Nc1nc2c(Nc3ccc(C(F)(F)F)c(Cl)c3)ncnc2s1` [Example 50, N^7-(3-Chloro-4-trifluoromethyl-phenyl)-N^2-(3,5-dimethyl-isoxazol-4-yl)thiazolo[5,4d]pyrimidine-2,7-diamine]: the pIC50 at rat TRPV1 and against human TRPV1 was below 5.18 each time.
As to `Cc1cccc(C)c1Nc1nc2c(Nc3ccc(C#N)nc3)ncnc2s1` [Example 29, 5-[2-(2,6-Dimethyl-phenylamino)-thiazolo[5,4-d]pyrimidin-7-ylamino]-pyridine-2-carbonitrile], the figures for the pIC50 at rat TRPV1 and against human TRPV1 were 6.75 and 6.68, respectively.
As for `CN(C)CCN(C)c1nc(Nc2ccc(C(F)(F)F)cc2)c2nc(Nc3c(Cl)cccc3Cl)sc2n1` [Example 182, N^2-(2,6-Dichloro-phenyl)-N^5-(2-dimethhylamino-ethyl)-methyl-N^7-(4-trifluoromethyl-phenyl)-thiazolo[5,4-d]pyrimidine-2,5,7-triamine], the pIC50 was 5.74 at rat TRPV1 and 5.88 on human TRPV1.
For `Cc1nc(Nc2ccc(SC(C)C)cc2)c2nc(Nc3c(Cl)cccc3Cl)sc2n1` [Example 103, N^2-(2,6-Dichloro-phenyl)-N^7-(4-isopropylsulfanyl-phenyl)-5-methyl-thiazolo[5,4-d]pyrimidine-2,7-diamine], the pIC50 is 7.48 on rat TRPV1 and 7.70 at human TRPV1.
For `Cc1cccc(C)c1Nc1nc2c(Nc3ccccc3)ncnc2s1` [Example 147, N^2-(2,6-Dimethyl-phenyl)-N^7-phenyl-thiazolo[5,4-d]pyrimidine-2,7-diamine], the pIC50 against rat TRPV1 is 6.45; against human TRPV1, 6.14.
The like results for `Cc1nc(Nc2ccc(C(F)(F)F)cc2)c2nc(Nc3ccccc3S(C)(=O)=O)sc2n1` [Example 197, N^2-(2-Methanesulfonyl-phenyl)-5-methyl-N^7-(4-trifluoromethylphenyl)-thiazolo[5,4-d]pyrimidine-2,7-diamine] were, in that order, 6.54 and 6.51.
The like results for `Cc1cccc(C)c1Nc1nc2c(Nc3ccc(I)cc3)ncnc2s1` [Example 137, N^2-(2,6-Dimethyl-phenyl)-N^7-(4-iodo-phenyl)-thiazolo[5,4-d]pyrimidine-2,7-diamine] were, in that order, 7.32 and 6.65.
Consider `Cc1cccc(C)c1Nc1nc2c(Nc3ccc(Cl)c(Cl)c3)ncnc2s1` [Example 34, N^7-(3,4-Dichloro-phenyl)-N^2-(2,6-dimethyl-phenyl)-thiazolo[5,4-d]pyrimidine-2,7-diamine], for which the pIC50 against rat TRPV1 and at human TRPV1 was below 5.18 each time.
In the case of `FC(F)(F)c1ccc(Nc2nc(N3CCNCC3)nc3sc(Nc4c(Cl)cccc4Cl)nc23)cc1` [Example 163, N^2-(2,6-Dichloro-phenyl)-5-piperazin-1-yl-N^7-(4-trifluoromethyl-phenyl)-thiazolo[5,4-d]pyrimidine-2,7-diamine], the figures for the pIC50 against rat TRPV1 and at human TRPV1 were 5.29 and 5.23, respectively.
The like results for `FC(F)(F)c1ccc(Nc2nc(N3CCCCC3)nc3sc(Nc4c(Cl)cccc4Cl)nc23)cc1` [Example 54, N^2-(2,6-Dichloro-phenyl)-5-piperidin-1-yl-N^7-(4-trifluoromethyl-phenyl)-thiazolo[5,4-d]pyrimidine-2,7-diamine] were, in that order, 7.48 and 7.20.
On the same counts, the results for `CN(C)S(=O)(=O)c1ccc(Nc2ncnc3sc(Nc4c(Cl)cccc4Cl)nc23)cc1` [Example 75, 4-[2-(2,6-Dichloro-phenylamino)-thiazolo[5,4-d]pyrimidin-7-ylamino]-N,N-dimethyl-benzenesulfonamide] are 9.00 and 9.00.
`Cc1cccc(C)c1Nc1nc2c(Nc3ccc(C(=O)N(C)C)cc3)ncnc2s1` [Example 145, 4-[2-(2,6-Dimethyl-phenylamino)-thiazolo[5,4-d]pyrimidin-7-ylamino]-N,N-dimethyl-benzamide]: the figures for the pIC50 against rat TRPV1 and against human TRPV1 were 6.35 and 6.34, respectively.
As to `Cc1noc(C)c1Nc1nc2c(Nc3ccc(C(F)(F)F)cc3)ncnc2s1` [Example 25, N^2-(3,5-Dimethyl-isoxazol-4-yl)-N^7-(4-trifluoromethyl-phenyl)-thiazolo[5,4-d]pyrimidine-2,7-diamine], the results for the pIC50 against rat TRPV1 and on human TRPV1 were 7.17 and 6.38, respectively.
The like results for `Cc1cccc(C)c1Nc1nc2c(Nc3ccc(S(C)(=O)=O)cc3)ncnc2s1` [Example 115, N^2-(2,6-Dimethyl-phenyl)-N^7-(4-methanesulfonyl-phenyl)-thiazolo[5,4-d]pyrimidine-2,7-diamine] were, in that order, 8.40 and 7.36.
Consider `Cc1ccc(Nc2ncnc3sc(Nc4c(C)cccc4C)nc23)cc1C` [Example 165, N^2-(2,6-Dimethyl-phenyl)-N^7-(3,4-dimethyl-phenyl)-thiazolo[5,4-d]pyrimidine-2,7-diamine], for which the pIC50 on rat TRPV1 and at human TRPV1 was below 5.18 throughout.
For the compound `CC1CCCN1c1nc(Nc2ccc(C(F)(F)F)c(Cl)c2)c2nc(Nc3c(Cl)cccc3Cl)sc2n1` (racemic) [Example 130, (racemic)-N^7-(3-Chloro-4-trifluoromethyl-phenyl)-N^2-(2,6-dichloro-phenyl)-5-(2-methyl-pyrrolidin-1-yl)-thiazolo[5,4-d]pyrimidine-2,7-diamine], the pIC50 is 7.06 on rat TRPV1 and 6.77 against human TRPV1.
In the case of `FC(F)(F)c1ccc(Nc2ncnc3sc(NC4CCCCC4)nc23)cn1` [Example 233, N^2-Cyclohexyl-N^7-[6-(trifluoromethyl)pyridin-3-yl][1,3]thiazolo[5,4-d]pyrimidine-2,7-diamine], the pIC50 was 5.11 against rat TRPV1 and 5.15 against human TRPV1.
As to `Cc1cccc(C)c1Nc1nc2c(Nc3ccc(Cl)nc3)ncnc2s1` [Example 119, N^7-(6-Chloro-pyridin-3-yl)-N^2-(2,6-dimethyl-phenyl)-thiazolo[5,4-d]pyrimidine-2,7-diamine], the pIC50 was 7.29 against rat TRPV1 and 7.25 at human TRPV1.
Take `Cc1ccccc1Nc1nc2c(Nc3ccc(S(=O)(=O)N4CCOCC4)cc3)ncnc2s1` [Example 217, N^2-(2-Methylphenyl)-N^7-[4-(morpholin-4-ylsulfonyl)phenyl][1,3]thiazolo[5,4-d]pyrimidine-2,7-diamine]: the pIC50 was 8.40 against rat TRPV1 and 8.10 against human TRPV1.
For `Cc1cccc(C)c1Nc1nc2c(Nc3ccc(S(=O)(=O)N4CCCC4)cc3)ncnc2s1` [Example 104, N^2-(2,6-Dimethyl-phenyl)-N^7-[4-(pyrrolidine-1-sulfonyl)-phenyl]-thiazolo[5,4-d]pyrimidine-2,7-diamine], the pIC50 at rat TRPV1 is 8.15; against human TRPV1, 7.66.
Turning to `Cc1cccc(C)c1Nc1nc2c(Nc3ccc(S(=O)(=O)N4CCOCC4)cc3)ncnc2s1` [Example 91, N^2-(2,6-Dimethyl-phenyl)-N^7-[4-(morpholine-4-sulfonyl)-phenyl]-thiazolo[5,4-d]pyrimidine-2,7-diamine], the pIC50 was 9.00 on rat TRPV1 and 8.15 against human TRPV1.
Take `O=S(=O)(c1ccc(Nc2ncnc3sc(Nc4c(Cl)cccc4Cl)nc23)cc1)N1CCOCC1` [Example 80, N^2-(2,6-Dichloro-phenyl)-N^7-[4-(morpholine-4-sulfonyl)-phenyl]-thiazolo[5,4-d]pyrimidine-2,7-diamine]: the figures for the negative-log IC50 (pIC50) at rat TRPV1 and at human TRPV1 were 9.00 and 8.70, respectively.
Regarding `Cc1nc(Nc2ccc(S(=O)(=O)C(F)(F)F)cc2)c2nc(Nc3c(Cl)cccc3Cl)sc2n1` [Example 77, N^2-(2,6-Dichloro-phenyl)-5-methyl-N^7-(4-trifluoromethanesulfonyl-phenyl)-thiazolo[5,4-d]pyrimidine-2,7-diamine], the pIC50 was 8.70 against rat TRPV1 and 9.00 against human TRPV1.
Regarding `Cc1cccc(C)c1Nc1nc2c(Nc3ccc(N(C)S(C)(=O)=O)cc3)ncnc2s1` [Example 161, N-{4-[2-(2,6-Dimethyl-phenylamino)-thiazolo[5,4-d]pyrimidin-7-ylamino]-phenyl}-N-methyl-methanesulfonamide], the pIC50 against rat TRPV1 is 5.64; on human TRPV1, 5.42.
With `FC(F)(F)c1ccc(Nc2ncnc3sc(Nc4ccccc4)nc23)cc1` [Example 20, N^2-Phenyl-N^7-(4-trifluoromethyl-phenyl)-thiazolo[5,4-d]pyrimidine-2,7-diamine], the negative-log IC50 (pIC50) on rat TRPV1 was 5.57; against human TRPV1, below 5.18.
